How the values were obtained:
[1] = target: human PDE9A (Homo sapiens, UniProt O76083); assay: PDE9A scintillation proximity assay with 3H-cGMP; format: biochemical
[2] = target: T1, mouse PDE9A (Mus musculus, UniProt O70628); assay: PDE9A scintillation proximity assay, mouse enzyme; format: biochemical
T1 sequence (O70628 1-534): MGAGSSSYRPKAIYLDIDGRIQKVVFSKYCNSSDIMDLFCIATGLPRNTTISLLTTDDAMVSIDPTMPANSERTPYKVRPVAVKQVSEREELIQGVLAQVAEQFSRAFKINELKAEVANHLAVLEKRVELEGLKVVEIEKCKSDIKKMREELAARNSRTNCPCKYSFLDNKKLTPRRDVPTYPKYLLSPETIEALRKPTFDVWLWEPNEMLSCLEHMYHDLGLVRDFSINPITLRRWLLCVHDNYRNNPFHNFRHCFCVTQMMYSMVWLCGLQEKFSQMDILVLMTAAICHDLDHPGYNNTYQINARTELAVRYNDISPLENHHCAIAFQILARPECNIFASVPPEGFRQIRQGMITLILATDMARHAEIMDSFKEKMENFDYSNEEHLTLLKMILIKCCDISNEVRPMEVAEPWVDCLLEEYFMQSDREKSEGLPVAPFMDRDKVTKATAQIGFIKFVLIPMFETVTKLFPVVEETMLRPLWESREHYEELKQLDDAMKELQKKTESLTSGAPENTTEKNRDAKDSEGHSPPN

[3] = target: T2, rat PDE9A (Rattus norvegicus, UniProt Q8QZV1); assay: PDE9A scintillation proximity assay, rat enzyme; format: biochemical
T2 sequence (Q8QZV1 1-534): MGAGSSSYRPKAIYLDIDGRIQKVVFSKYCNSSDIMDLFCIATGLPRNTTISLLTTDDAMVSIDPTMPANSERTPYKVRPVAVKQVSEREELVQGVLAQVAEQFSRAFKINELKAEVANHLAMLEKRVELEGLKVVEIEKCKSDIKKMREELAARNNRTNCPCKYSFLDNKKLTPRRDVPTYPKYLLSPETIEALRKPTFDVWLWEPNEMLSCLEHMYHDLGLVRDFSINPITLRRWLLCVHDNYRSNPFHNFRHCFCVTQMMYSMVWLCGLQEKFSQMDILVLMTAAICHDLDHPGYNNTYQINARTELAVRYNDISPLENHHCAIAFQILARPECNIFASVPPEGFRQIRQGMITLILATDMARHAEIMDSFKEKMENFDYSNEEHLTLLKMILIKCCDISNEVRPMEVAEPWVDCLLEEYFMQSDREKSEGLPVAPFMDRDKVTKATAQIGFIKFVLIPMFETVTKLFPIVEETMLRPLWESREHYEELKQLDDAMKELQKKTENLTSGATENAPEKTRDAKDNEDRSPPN

[4] = tested on: PDE2A; assay: PDE selectivity profiling; format: biochemical, human
[5] = tested on: PDE3B; assay: PDE selectivity profiling; format: biochemical, human
[6] = tested on: PDE7B; assay: PDE selectivity profiling; format: biochemical, human
[7] = tested on: PDE10A; assay: PDE selectivity profiling; format: biochemical, human
[8] = Pharmacokinetics in dogs; format: in vivo; conditions: dog, blood, iv, 0.3 mg/kg
[9] = tested on: CYP1A2; format: in vitro ADME; conditions: human hepatocytes
[10] = tested on: CYP3A4 mRNA; assay: CYP induction potential in human hepatocytes; format: in vitro ADME
[11] = Metabolite identification assay, hepatocyte incubation; format: in vitro ADME, rat
[12] = as above; format: in vitro ADME, human
[13] = tested on: 75 off-targets (Panlabs); assay: Panlabs off-target profile
[14] = target: hERG (Homo sapiens, UniProt Q12809); assay: Cardiac ion channel inhibition
[15] = target: Nav1.5 (Homo sapiens, UniProt Q14524); assay: Cardiac ion channel inhibition
[16] = Ames test
[17] = tested on: urinary cGMP; assay: Urinary cGMP assay in rats; format: in vivo, rat; conditions: 40 mg/kg
[18] = target: T3, CYP1A2 (Homo sapiens, UniProt P05177); conditions: at 20 μM
T3 sequence (P05177 1-516): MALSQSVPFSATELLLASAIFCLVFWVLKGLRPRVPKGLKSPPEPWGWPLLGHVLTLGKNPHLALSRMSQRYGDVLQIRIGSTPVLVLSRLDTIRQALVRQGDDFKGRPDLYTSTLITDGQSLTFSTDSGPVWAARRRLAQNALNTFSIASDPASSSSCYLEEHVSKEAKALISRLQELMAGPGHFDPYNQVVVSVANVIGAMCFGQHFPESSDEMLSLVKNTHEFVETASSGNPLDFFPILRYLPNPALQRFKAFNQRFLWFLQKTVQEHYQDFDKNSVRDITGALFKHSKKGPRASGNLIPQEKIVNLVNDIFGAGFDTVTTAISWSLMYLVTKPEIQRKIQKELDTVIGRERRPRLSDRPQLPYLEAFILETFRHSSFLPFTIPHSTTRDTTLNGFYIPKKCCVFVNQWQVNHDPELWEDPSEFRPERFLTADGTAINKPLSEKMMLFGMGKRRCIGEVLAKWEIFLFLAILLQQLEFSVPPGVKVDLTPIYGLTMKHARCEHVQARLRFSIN

[19] = target: T4, CYP2C8 (Homo sapiens, UniProt P10632); assay: CYP inhibition assay; conditions: at 20 μM
T4 sequence (P10632 1-490): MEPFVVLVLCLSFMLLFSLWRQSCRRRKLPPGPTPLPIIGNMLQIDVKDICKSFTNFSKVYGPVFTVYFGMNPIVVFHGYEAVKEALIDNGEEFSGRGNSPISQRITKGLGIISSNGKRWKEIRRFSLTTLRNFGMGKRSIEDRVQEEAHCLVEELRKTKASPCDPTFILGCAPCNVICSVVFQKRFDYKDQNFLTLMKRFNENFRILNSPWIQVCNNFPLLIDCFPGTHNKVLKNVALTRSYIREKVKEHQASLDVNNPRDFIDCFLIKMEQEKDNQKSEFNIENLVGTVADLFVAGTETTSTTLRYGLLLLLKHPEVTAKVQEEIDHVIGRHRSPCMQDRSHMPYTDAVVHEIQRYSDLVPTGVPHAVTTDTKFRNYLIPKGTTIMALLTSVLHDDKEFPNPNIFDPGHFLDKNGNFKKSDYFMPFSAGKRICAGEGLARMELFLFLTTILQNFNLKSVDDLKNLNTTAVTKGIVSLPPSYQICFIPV

[20] = target: CYP2D6 (Homo sapiens, UniProt P10635); assay: CYP inhibition assay; conditions: at 20 μM
[21] = target: CYP3A4 (Homo sapiens, UniProt P08684); assay: CYP inhibition assay; conditions: at 20 μM
[22] = Radiotelemetric measurement of blood pressure in rats; conditions: telemetric rats, within 24 h
[23] = Transverse aortic constriction; format: in vivo; conditions: mouse TAC
[24] = 10 mg/kg twice daily for 5 weeks
[25] = twice daily oral 10 or 50 mg/kg

hERG, sequence (Q12809 whole entry): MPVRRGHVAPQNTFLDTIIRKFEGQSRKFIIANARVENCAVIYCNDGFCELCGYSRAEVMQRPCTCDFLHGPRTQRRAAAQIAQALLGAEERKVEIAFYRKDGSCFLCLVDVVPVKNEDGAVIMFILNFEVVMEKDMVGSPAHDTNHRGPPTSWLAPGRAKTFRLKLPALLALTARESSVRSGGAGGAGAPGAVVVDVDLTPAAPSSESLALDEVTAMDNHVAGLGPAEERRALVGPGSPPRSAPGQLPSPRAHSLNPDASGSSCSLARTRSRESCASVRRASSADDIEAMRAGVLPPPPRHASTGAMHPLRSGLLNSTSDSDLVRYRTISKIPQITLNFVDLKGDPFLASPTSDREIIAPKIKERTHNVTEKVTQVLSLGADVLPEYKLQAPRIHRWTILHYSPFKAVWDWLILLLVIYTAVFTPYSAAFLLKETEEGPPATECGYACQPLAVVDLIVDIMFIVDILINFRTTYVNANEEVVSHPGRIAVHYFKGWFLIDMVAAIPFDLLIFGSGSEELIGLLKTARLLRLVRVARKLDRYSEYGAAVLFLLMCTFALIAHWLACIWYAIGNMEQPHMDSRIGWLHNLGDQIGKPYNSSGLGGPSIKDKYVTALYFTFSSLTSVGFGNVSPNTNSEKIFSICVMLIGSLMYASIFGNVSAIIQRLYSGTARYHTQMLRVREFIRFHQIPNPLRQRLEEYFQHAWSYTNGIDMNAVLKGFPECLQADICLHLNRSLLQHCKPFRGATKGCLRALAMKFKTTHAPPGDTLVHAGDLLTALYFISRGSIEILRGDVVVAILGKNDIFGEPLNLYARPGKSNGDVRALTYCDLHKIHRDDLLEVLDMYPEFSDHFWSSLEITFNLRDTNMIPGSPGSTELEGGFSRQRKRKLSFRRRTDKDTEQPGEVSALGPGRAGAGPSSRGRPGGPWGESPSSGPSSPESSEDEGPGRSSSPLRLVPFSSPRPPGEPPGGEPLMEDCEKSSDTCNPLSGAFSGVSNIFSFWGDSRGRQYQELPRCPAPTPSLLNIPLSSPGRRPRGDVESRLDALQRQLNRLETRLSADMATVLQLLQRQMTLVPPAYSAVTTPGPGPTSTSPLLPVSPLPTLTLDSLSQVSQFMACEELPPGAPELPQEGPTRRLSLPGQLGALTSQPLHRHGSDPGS
CYP2D6, sequence (P10635 whole entry): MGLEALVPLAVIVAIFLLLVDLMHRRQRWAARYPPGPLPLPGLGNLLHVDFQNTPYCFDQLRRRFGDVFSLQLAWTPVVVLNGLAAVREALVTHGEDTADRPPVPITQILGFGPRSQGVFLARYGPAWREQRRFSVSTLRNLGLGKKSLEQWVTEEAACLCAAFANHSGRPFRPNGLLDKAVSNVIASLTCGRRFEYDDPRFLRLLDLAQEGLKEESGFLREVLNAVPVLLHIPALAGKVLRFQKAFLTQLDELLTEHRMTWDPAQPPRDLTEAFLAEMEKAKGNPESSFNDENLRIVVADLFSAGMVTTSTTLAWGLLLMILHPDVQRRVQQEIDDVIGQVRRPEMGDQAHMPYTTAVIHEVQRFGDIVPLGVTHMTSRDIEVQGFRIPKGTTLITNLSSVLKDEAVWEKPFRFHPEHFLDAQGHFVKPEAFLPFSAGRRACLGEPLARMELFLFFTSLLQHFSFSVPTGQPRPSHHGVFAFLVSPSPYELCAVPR
CYP3A4, sequence (P08684 whole entry): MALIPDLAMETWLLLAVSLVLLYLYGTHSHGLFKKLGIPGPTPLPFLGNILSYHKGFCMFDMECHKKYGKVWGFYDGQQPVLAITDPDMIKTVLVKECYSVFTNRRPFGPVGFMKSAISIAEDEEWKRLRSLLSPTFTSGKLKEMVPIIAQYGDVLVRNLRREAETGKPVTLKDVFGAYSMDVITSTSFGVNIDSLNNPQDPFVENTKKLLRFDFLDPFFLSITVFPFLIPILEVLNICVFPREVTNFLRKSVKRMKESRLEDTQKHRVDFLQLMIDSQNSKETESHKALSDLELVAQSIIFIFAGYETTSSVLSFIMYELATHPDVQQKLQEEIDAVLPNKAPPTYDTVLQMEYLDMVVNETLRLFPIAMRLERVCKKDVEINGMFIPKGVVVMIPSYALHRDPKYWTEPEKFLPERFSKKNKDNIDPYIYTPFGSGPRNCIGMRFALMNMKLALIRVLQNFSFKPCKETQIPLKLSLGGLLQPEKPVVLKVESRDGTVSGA
Nav1.5, sequence (Q14524 whole entry): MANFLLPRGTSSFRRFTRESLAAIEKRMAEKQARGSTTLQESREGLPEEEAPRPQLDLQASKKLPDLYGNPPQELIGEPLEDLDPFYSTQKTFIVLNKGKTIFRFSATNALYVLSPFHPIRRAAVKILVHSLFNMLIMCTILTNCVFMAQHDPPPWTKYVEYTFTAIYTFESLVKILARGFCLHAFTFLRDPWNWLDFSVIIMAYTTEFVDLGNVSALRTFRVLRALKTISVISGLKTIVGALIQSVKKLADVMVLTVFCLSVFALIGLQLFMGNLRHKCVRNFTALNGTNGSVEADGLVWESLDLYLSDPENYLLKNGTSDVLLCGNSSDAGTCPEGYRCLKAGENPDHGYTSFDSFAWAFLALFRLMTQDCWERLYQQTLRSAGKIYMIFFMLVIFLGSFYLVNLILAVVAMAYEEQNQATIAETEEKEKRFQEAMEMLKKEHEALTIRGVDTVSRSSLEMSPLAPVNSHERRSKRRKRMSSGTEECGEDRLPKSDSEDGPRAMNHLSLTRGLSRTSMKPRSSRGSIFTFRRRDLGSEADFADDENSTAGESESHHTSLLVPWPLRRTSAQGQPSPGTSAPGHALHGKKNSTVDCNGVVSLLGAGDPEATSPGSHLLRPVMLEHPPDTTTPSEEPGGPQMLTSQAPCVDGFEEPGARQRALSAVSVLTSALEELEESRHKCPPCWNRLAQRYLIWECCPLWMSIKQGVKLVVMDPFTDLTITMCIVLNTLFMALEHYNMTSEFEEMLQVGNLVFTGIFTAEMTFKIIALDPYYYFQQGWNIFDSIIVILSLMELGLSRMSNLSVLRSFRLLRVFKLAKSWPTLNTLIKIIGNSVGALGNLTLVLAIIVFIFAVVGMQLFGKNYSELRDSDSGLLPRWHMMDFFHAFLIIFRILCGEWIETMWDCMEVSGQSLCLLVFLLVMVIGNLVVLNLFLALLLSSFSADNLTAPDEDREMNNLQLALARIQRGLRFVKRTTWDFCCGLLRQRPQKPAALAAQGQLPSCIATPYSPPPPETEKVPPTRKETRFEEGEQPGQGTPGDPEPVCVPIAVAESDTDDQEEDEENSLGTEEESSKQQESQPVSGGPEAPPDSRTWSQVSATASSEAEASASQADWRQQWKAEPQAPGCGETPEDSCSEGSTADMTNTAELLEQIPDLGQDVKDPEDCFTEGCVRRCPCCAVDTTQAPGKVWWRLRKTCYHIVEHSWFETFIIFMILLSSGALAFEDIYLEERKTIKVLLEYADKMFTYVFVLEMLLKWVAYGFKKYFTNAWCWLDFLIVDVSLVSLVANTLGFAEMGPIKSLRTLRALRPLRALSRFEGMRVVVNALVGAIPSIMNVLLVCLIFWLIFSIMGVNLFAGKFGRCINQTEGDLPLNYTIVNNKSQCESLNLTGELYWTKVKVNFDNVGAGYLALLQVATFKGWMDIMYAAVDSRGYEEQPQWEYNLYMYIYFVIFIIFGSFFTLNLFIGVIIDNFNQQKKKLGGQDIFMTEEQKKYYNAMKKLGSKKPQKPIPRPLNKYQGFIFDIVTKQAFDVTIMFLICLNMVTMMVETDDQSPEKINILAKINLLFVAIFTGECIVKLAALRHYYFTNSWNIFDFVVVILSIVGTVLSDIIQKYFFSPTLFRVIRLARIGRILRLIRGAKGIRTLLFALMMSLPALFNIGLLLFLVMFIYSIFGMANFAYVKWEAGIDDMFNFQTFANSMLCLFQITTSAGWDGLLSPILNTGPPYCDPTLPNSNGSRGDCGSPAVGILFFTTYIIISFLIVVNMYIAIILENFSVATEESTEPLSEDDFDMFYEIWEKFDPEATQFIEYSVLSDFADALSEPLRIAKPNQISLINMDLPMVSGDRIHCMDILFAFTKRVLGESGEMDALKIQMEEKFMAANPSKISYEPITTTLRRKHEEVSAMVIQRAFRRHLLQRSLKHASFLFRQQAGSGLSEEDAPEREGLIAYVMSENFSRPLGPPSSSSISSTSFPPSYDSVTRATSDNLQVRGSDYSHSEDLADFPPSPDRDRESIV
human PDE9A, sequence (O76083 whole entry): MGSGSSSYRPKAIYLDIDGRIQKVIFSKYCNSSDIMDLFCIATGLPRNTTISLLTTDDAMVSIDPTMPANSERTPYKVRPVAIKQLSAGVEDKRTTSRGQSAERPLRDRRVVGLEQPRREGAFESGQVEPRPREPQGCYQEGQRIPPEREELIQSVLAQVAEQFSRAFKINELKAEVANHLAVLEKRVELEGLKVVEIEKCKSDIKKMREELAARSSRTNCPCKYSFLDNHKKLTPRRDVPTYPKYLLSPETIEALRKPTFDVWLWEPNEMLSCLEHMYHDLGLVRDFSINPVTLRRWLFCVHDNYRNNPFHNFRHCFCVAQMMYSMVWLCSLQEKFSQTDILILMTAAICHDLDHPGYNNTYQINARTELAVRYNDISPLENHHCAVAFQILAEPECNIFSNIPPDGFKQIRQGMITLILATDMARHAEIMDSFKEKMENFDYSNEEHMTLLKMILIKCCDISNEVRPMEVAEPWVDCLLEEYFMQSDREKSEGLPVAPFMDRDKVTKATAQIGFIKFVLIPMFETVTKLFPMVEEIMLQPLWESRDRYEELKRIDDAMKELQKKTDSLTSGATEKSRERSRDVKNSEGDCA

With `CCCC1CNCc2c1[nH]c(=O)c(C#N)c2N1CCC2(CC1)CC2.Cl` (single isomer, unassigned; ent-4) [Compound 30, ent-4-(6-Azaspiro[2.5]octan-6-yl)-2-oxo-8-propyl-1,2,5,6,7,8-hexahydro-1,6-naphthyridine-3-carbonitrile Hydrochloride] the “BEI binding efficiency index −log (IC50)/MW × 1000” value [1] was 23.9, the IC50 [2] was 34 nM and the IC50 [3] was 42 nM. The “PDE2A selectivity factor (PDE#-IC50/PDE9A-IC50)” value [4] was greater than 650x, the “PDE3B selectivity factor (PDE#-IC50/PDE9A-IC50)” value [5] was greater than 650x and the “PDE7B selectivity factor (PDE#-IC50/PDE9A-IC50)” value [6] was greater than 650x. The “PDE10A selectivity factor (PDE#-IC50/PDE9A-IC50)” value [7] was greater than 650x, the clearance [8] was 15 mL/min/kg and the CYP1A2 induction [9] was “no induction”. For the same compound, the “concentrations at which CYP3A4 mRNA was induced” value [10] was “above 9.2 μM”, the “reactive metabolites after incubation with rat hepatocytes” value [11] was “no reactive metabolites were formed” and the “reactive metabolites after incubation with human hepatocytes” value [12] was “no reactive metabolites were formed”. The “degradation in the presence of human hepatocytes” value ([12]; after 4 h of incubation) was “almost no degradation”, the “inhibition of 75 off-targets (Panlabs)” value [13] was “clean profile” and the “inhibition of cardiac ion channel hERG” value [14] was “clean profile”. For the same compound, the “inhibition of cardiac ion channel Nav1.5” value [15] was “clean profile”, the “genotoxicity in Ames test” value [16] was “No genotoxicity” and the “urinary cGMP versus vehicle” value [17] was “nonsignificant trend toward higher cGMP levels”. The “inhibition of CYP1A2” value [18] was “No inhibition”, the “inhibition of CYP2C8” value [19] was “No inhibition” and the “inhibition of CYP2D6” value [20] was “No inhibition”. The “inhibition of CYP3A4” value [21] was “No inhibition”, the “effects on blood pressure” value ([22]; once daily oral 5 or 40 mg/kg) was “no significant effects” and the “effects on heart rate” value ([22]; once daily oral 5 or 40 mg/kg) was “no significant effects”.
For `C[C@@H]1CN(Cc2ncccn2)C[C@H]1c1nc2c(cnn2C2CCOCC2)c(=O)[nH]1` [PF-04447943, 6-[(3S,4S)-4-Methyl-1-(pyrimidin-2-ylmethyl)pyrrolidin-3-yl]-1-(tetrahydro-2H-pyran-4-yl)-1,5-dihydro-4H-pyrazolo[3,4-d]pyrimidin-4-one, reference compound], the clearance [8] was 8.33 mL/min/kg, the “minimal diastolic left ventricular pressure (LVPmin)” value ([23]; 10 mg/kg bid for five weeks, 10 mg/kg) was “reduction” and the “heart function (LVEDP, Tau)” value [23, 24] was “trend for improvement”. The “hypertrophy of the left atrium” value [23, 24] was “statistically significant reduction”, the “effects on blood pressure” value [22, 25] was “no significant effects” and the “effects on heart rate” value [22, 25] was “no significant effects”.
